According to patent US20240051978A1, “3-CYCLIC AMINE-INDOLE DERIVATIVES AS SEROTONERGIC AGENTS FOR THE TREATMENT OF CNS DISORDERS” (MINDSET PHARMA INC., priority 2020, published 2024):
Read-outs that look alike come from different tables or passages of the source.

What was measured:
[1] = molecular target: human 5-HT2A (h5-HT2A) receptor (Homo sapiens (Human), UniProt P28223); experiment: FLIPR assay, human 5-HT2A receptor under agonist mode; format: cell-based; conditions: FLIPR calcium
Procedure: I. Assessment of the Activated Effect of Exemplary Compounds of Formula I Targeting on Human 5-HT2A (h5-HT2A) Receptor Under Agonist Mode:
1. the Cells were cultured in cell culture medium (DMEM containing 10% FBS 1×penicillin-streptomycin 300 μg/ml G418 and 100 μg/ml hygromycin B) at 37° C., 5% (v/v) CO2.
2. One day before the assays, the cells were detached using TrypLE™ Express and cells were counted using cell counter.
3. 20000 cells/well were seeded in 30 μl/well culture medium to a 384-well cell plate and the cells were incubated overnight at 37° C., 5% (v/v) CO2.
4. On the assay day, 2× dye solution was prepared following the manual of the FLIPR® Calcium 6 Assay Kit: i. The dye was diluted with assay buffer(20 mM HEPES in 1×HBSS, PH7.4); ii. Probenecid was added to the final concentration of 5 mM; iii. Vortex vigorously for 1-2 minutes.
5. Medium was removed from cell plate by flicking the cell plate on towel papers.
6. 10 μl of assay buffer and 10 μl of 2× dye solution was added to each well of the cell plate.
7. The cell plate was placed on plate shaker, and the plate was agitated at 600 rpm for 2 minutes. The plate was incubated at 37° C. for 2 hours followed by additional 15-minute incubation at 25° C.
8. 3× compound in assay buffer was prepared: a. reference compounds were diluted to required concentration with DMSO. Compounds were added to a 384-well compound plate; b. Serial dilutions were performed; c. 10 mM test compounds were added to the compound plate, 3-fold serial dilutions were performed. d. […] 20 μl/well assay buffer was added to the compound plate; f. The plate was mixed on plate shaker for 2 mins;
i. The normalized fluorescence reading (RFU) was calculated as shown below, wherein Fmax and Fmin stand for maximum and minimum of calcium signal during defined time window: RFU=Fmax−Fmin
ii. The percentage activation was calculated by using following equation: […]
iii. EC50 was calculated by fitting % activation against log of compound concentrations with Hill equation using XLfit.

[2] = Liver microsomes stability, rat; conditions: for Predicted hepatic CL: Rat liver microsomes, with NADPH; for Remaining Percentage (%) 0 min / Remaining Percentage (%) 60 min: Rat; for CLint scaled at 2 μM / half-life at 2 μM / microsomal CLint at 2 μM: rat, microsomes
Procedure: (§1) The objective of this study was to estimate in vitro metabolic stability of 1-12 in pooled human and male mouse liver microsomes. The concentrations of parent compounds in reaction systems were evaluated by LC-MS/MS for estimating the stability in pooled human and male mouse liver microsomes. The in vitro intrinsic clearances of test compounds were determined as well.
(§2) A master solution in the “Incubation Plate” containing phosphate buffer, ultra-pure H2O, MgCl2 solution and liver microsomes was made according to Table 3. The mixture was pre-warmed at 37° C. water bath for 5 minutes.
(§3) 40 μL of 10 mM NADPH solution was added to each well. The final concentration of NADPH was 1 mM. The negative control samples were prepared by replacing NADPH with 40 μL of ultra-pure H2O. Samples were prepared in duplicate. Negative controls were prepared in singlet.
(§4) The reaction was started with the addition of 4 μL of 200 μM exemplary test compounds or control compounds to each master solution to get the final concentration of 2 μM. This study was performed in duplicate.
(§5) Aliquots of 50 μL were taken from the reaction solution at 0, 15, 30, 45 and 60 minutes. The reaction solutions were stopped by the addition of 4 volumes of cold methanol with IS (100 nM alprazolam, 200 nM imipramine, 200 nM labetalol and 2 μM ketoprofen). Samples were centrifuged at 3,220 g for 40 minutes. Aliquot of 90 μL of the supernatant was mixed with 90 μL of ultra-pure H2O and then was used for LC-MS/MS analysis.
(§6) LC/MS analysis was performed for all samples from this study using a Shimadzu liquid chromatograph separation system equipped with degasser DUG-20A5R; solvent delivery unit LC-30AD; system controller SIL-30AC; column oven CTO-30A; CTC Analytics HTC PAL System; Mass spectrometric analysis was performed using an Triple Quad™ 5500 instrument.
(§7) All calculations were carried out using Microsoft Excel. Peak area ratios of test compound to internal standard (listed in the below table) were determined from extracted ion chromatograms.
(§8) All calculations were carried out using Microsoft Excel. Peak areas were determined from extracted ion chromatograms. The slope value, k, was determined by linear regression of the natural logarithm of the remaining percentage of the parent drug vs. incubation time curve.
(§9) The in vitro half-life (in vitro t½) was determined from the slope value:
(§10) Conversion of the in vitro t½ (min) into the in vitro intrinsic clearance (in vitro CLint, in μL/min/mg proteins) was done using the following equation (mean of duplicate determinations): […]

[3] = Liver microsomes stability, human; conditions: for Remaining Percentage (%) 0 min / Remaining Percentage (%) 60 min: Human; for CLint scaled at 2 μM / half-life at 2 μM / microsomal CLint at 2 μM: human, microsomes
Procedure: as §1, §2, §3, §4, §5, §6, §7, §8, §9, §10

[4] = Liver microsomes stability, mouse; conditions: for Remaining Percentage (%) 0 min / Remaining Percentage (%) 60 min: Mouse; for CLint scaled at 2 μM / half-life at 2 μM / microsomal CLint at 2 μM: male, mouse, microsomes
Procedure: as §1, §2, §3, §4, §5, §6, §7, §8, §9, §10

human 5-HT2A receptor = human 5-HT2A receptor (Homo sapiens (Human), UniProt P28223); experiment: Radioligand binding assay ([3H]-ketanserin) on human 5-HT2A receptor; conditions: [3H]-ketanserin competition; read-out: h5-HT2A IC50
Procedure: • i. The assay buffer was prepared following the table below;
• ii. 8 doses of reference and exemplary test compounds were prepared starting from 10 mM stock solution as requested by 5-fold serial dilutions with 100%; • iii. (v/v) DMSO was prepared: a. 50 μl/well of 0.5% (v/v) PEI was added to UniFilter-96 GF/B plates. The plates were sealed and incubates at 4° C. for 3 hrs; b. After incubation, the plates were washed 3 times with ice-cold wash buffer (50 mM Tris, pH7.4); • iv. Preparation of assay plates: a. Cell membrane was diluted with assay buffer and 330 μl/well was added to 96 round deep well plates to reach a concentration of 20 μg/well; b. 8 concentrations of reference or exemplary test compounds were prepared and added 110 μl/well to 96 round deep well plates; c. [3H]-ketanserin was diluted with assay buffer to 5 nM (5× final concentration) and added 110 μl/well to 96 round deep well plates. • v. The plate were centrifuged at 1000 rpm for 30 secs and then agitated at 600 rpm, R.T. for 5 min. • vi. The plates were sealed and incubated at 27° C. for 90 min. • vii. The incubation was stopped by vacuum filtration onto GF/B filter plates followed by 4 times washing with ice-cold wash buffer (50 mM Tris, pH7.4). • vii. […] The filter plates were sealed and 40 μl/well of scintillation cocktail added. • x. The plate was read by using a Microbeta2 microplate counter.
For reference and exemplary test compounds, the results are expressed as % Inhibition, using the normalization equation: N=100−100×(U−C2)/(C1−C2), where U is the unknown value, C1 is the average of high controls, and C2 is the average of low controls. The IC50 was determined by fitting percentage of inhibition as a function of compound concentrations with Hill equation using XLfit.

[5] = cited from earlier work
[6] = Human liver microsomes, with NADPH
[7] = Mouse liver microsomes, with NADPH

| SMILES | EC50 [1] | Predicted hepatic CL [2] | Remaining Percentage (%) 0 min ([2]; With NADPH) | Remaining Percentage (%) 60 min ([2]; With NADPH) | Remaining Percentage (%) 0 min ([2]; Without NADPH) | Remaining Percentage (%) 60 min ([2]; Without NADPH) | CLint scaled at 2 μM [2] | half-life at 2 μM [2] | microsomal CLint at 2 μM [2] | Predicted hepatic CL [3, 6] | Remaining Percentage (%) 0 min ([3]; With NADPH) | Remaining Percentage (%) 60 min ([3]; With NADPH) | Remaining Percentage (%) 0 min ([3]; Without NADPH) | Remaining Percentage (%) 60 min ([3]; Without NADPH) | Predicted hepatic CL [4, 7] | Remaining Percentage (%) 0 min ([4]; With NADPH) | Remaining Percentage (%) 60 min ([4]; With NADPH) | Remaining Percentage (%) 0 min ([4]; Without NADPH) | Remaining Percentage (%) 60 min ([4]; Without NADPH) | IC50 (human 5-HT2A receptor) | also measured |
| --- | --- | --- | --- | --- | --- | --- | --- | --- | --- | --- | --- | --- | --- | --- | --- | --- | --- | --- | --- | --- | --- |
| [2H]C1([2H])CC(c2c[nH]c3cccc(O)c23)C([2H])([2H])N1 (stereo not shown) [Compound I-33, 3-(pyrrolidin-3-yl-2,2,5,5-d4)-1H-indol-4-ol] | > 10000 nM | 15.15 mL/min/kg | 100.00% | 70.49% | 100.00% | 105.30% | 20.9 mL/min/kg | 1.98 h | 11.7 µL/min/mg | 1.24 mL/min/kg | 100.00% | 96.89% | 100.00% | 115.64% | 0.00 mL/min/kg | 100.00% | 103.45% | 100.00% | 118.32% | < 1000 nM | CLint scaled at 2 μM [3]: 1.32 mL/min/kg; half-life at 2 μM [3]: 22 h; microsomal CLint at 2 μM [3]: 1.05 µL/min/mg; T1/2 (min) ([4]; Mouse liver microsomes, with NADPH, 2 μM): ∞ |
| [2H]C1([2H])CC(c2c[nH]c3cccc(O)c23)C([2H])([2H])N1C (stereo not shown) [Compound I-34, 3-(1-methylpyrrolidin-3-yl-2,2,5,5-d4)-1H-indol-4-ol] | < 1000 nM | 23.24 mL/min/kg | 100.00% | 51.06% | 100.00% | 85.53% | 40.1 mL/min/kg | 1.03 h | 22.4 µL/min/mg | 4.02 mL/min/kg | 100.00% | 88.74% | 100.00% | 80.14% | 38.03 mL/min/kg | 100.00% | 63.66% | 100.00% | 96.60% | 1000 to 10000 nM | CLint scaled at 2 μM [3]: 4.99 mL/min/kg; half-life at 2 μM [3]: 5.8 h; microsomal CLint at 2 μM [3]: 3.98 µL/min/mg; CLint scaled at 2 μM [4]: 65.9 mL/min/kg; half-life at 2 μM [4]: 1.53 h; microsomal CLint at 2 μM [4]: 15.1 µL/min/mg |
| [2H]C1([2H])CC(c2c[nH]c3cccc(OCc4ccccc4)c23)C([2H])([2H])N1 (stereo not shown) [Compound I-35, 4-(benzyloxy)-3-(pyrrolidin-3-yl-2,2,5,5-d4)-1H-indole] | < 1000 nM | 17.94 mL/min/kg | 100.00% | 64.09% | 100.00% | 103.32% | 26.6 mL/min/kg | 1.56 h | 14.8 µL/min/mg | 0.00 mL/min/kg | 100.00% | 104.21% | 100.00% | 119.60% | 32.19 mL/min/kg | 100.00% | 70.91% | 100.00% | 90.87% | < 1000 nM | T1/2 (min) ([3]; Human liver microsomes, with NADPH, 2 μM): ∞; CLint scaled at 2 μM [4]: 50.1 mL/min/kg; half-life at 2 μM [4]: 2.02 h; microsomal CLint at 2 μM [4]: 11.5 µL/min/mg |
| CN(C)CCc1c[nH]c2cccc(OP(=O)(O)O)c12 [Psilocybin, 4-phosphoryloxy-N,N-dimethyltrypatmine] |  |  |  |  |  |  |  |  |  |  |  |  |  |  |  |  |  |  |  |  | abstinence rate ([5]; 12 months follow-up): 67%; abstinence rate ([5]; six months follow-up): 80% |
